# Measurements: patent US7199286B2, “Plant-derived novel pathogen and SAR-induction chemical induced promoters, and fragments thereof” (Syngenta Participations AG, priority 1999, dated 2007)
# How the values were obtained:
# Format in all cases: in vivo, Arabidopsis
# [1] = system: PR-1 RNA; experiment: Quantitative Northern, PR-1 level in wild type and NI16-overexpressing lines after BTH; details: 24 hours after induction
# From the text: (§1) A NI16 construct is made in binary vector pBAR35S (obtained from Jeff Dangi, UNC-Chapel Hill). First a full-length clone is obtained by cloning the 5′ sequence of NI16 (obtained by 5′ RACE and cloned into AT vector pCR2.1) into the EcoRI site of the original pJG4-5 clone as an EcoRI fragment. Then the entire coding region of NI16 is PCR cloned back into pCR2.1 with the primers 16F and 16 R (Table 1). The resulting plasmid is cut with XbaI and SacI for cloning into pBAR35S. The clone is transformed into Agrobacterium strain GV3101 (Koncz and Schell, 1986). WS—O and nim1-4 plants are transformed using standard procedures and the resulting T1 seed is selected by spraying with a 60 μg/ml solution of BASTA every two days for 6 days after germination. BASTA resistant plants are analyzed for levels of NI16 and PR-1 RNA after 4 weeks.
# (§2) 4 WS—O plants expressing NI16 above wild type levels are recovered. All have elevated levels of PR-1 RNA as detected on Northern blots. All 4 plants are taken to the T3 generations. Quantitative Northerns are done on two of the T3 lines, one with a relatively low level of N116 RNA (1-1B) and one with a high level of N116 RNA (2-1B). Northerns are hybridized with NI16 and PR-1 probes. Measurements are taken with a Molecular Dynamics Phosphoimager, which directly measures counts per unit area. The amount of PR-1 RNA correlates directly with the amount of NI16 RNA, i.e., the highest expressers of NI16 have the highest levels of PR-1. (Table 2). […] PR-1 levels are induced at the same rate in the two NI16 lines as the WS—O control, however steady state PR-1 levels are higher, especially at 0 and 10 μm BTH. NI16 may therefore be necessary for the SAR response, and overexpression of NI16 may activate a subset of the response. PR-1 is also elevated in nahG, nim1-1 and nim1-4 plants overexpressing NI16. Out of 34 nim1-1 T1 plants containing the 35S-NI16 construct, 22 have elevated levels of PR-1. Similarly, 18/26 nim1-4 and 20/27 nahG primary transformants have elevated PR-1 levels. In each case, high NI16 expression is correlated with high PR-1 levels. This is significant because nim1 and nahG plants are normally deficient in their ability to induce PR1 in response to pathogens. Furthermore, this provides evidence that overexpression of NI16 can at least partially compensate for the absence of SA and a functional NIM protein in plants.
# [2] = system: NI16 RNA; experiment: Induction of NI16 mRNA by SA and BTH spray, RNA blot hybridization; details: WS-O plants sprayed with 5 mM SA or 300 μm BTH
# Protocol: RNA is prepared from 4 week old Wassilewskija (WS—O) plants, that are either sprayed with water, a 5 mM solution of sodium salicylate (SA), or a 300 μm solution of benzo-(1,2,3)-thiadiazole-7-carbothioic acid S-methyl ester (BTH). […] RNA extractions and RNA blot hybridizations are performed as described previously by Ausubel et al. (1987). NI16 RNA is induced 5–10 fold within 15 minutes of SA or BTH induction and reaches a peak of approximately 50 fold induction within 2 hours of SA treatment and 25 fold induction with BTH treatment.
# [3] = system: NI16 gene; experiment: NI16 gene induction in NIM1-overexpressing plants treated with BTH
# [4] = system: NI16 RNA; experiment: Quantitative Northern, NI16 level in wild type and NI16-overexpressing lines after BTH; details: for NI16 level (relative): 24 hours after induction
# From the text: as §1, §2
# [5] = system: NI16 transcript; experiment: NI16 transcript accumulation in nim1-4 plants after BTH treatment; details: after 2 and 24 hours of BTH treatment
# [6] = NI16-overexpressing line 1-1B, 10 μm BTH
# [7] = NI16-overexpressing line 1-1B, 100 μm BTH
# [8] = NI16-overexpressing line 2-1B, 10 μm BTH
# [9] = NI16-overexpressing line 2-1B, 100 μm BTH
structure (smiles),measurement,setting,value
"CSC(=O)c1cccc2nnsc12 [BTH, benzo(1,2,3)thiadiazole-7-carbothioic acid S-methyl ester]",PR-1 level (relative),[1]; [6],30
same,PR-1 level (relative),[1]; [7],120
same,PR-1 level (relative),[1]; [8],70
same,PR-1 level (relative),[1]; [9],140
same,PR-1 level (relative),"[1]; genotype WS, 10 μm BTH",30
same,PR-1 level (relative),"[1]; genotype WS, 100 μm BTH",90
same,time NI16 transcript remains highly induced after treatment,[2],at least 48 hours
same,NI16 RNA peak induction,"[2]; peak, within 2 hours of SA treatment",~25 fold
same,NI16 gene induction,[3],induced
same,NI16 level (relative),[4]; [6],1400
same,NI16 level (relative),[4]; [7],1480
same,NI16 level (relative),[4]; [8],14000
same,NI16 level (relative),[4]; [9],12000
same,effect on amount of NI16 RNA,"[4]; NI16 transgenic lines, BTH rates lower than normally used for protection to Peronospora parasitica",do not significantly increase the amount of NI16 RNA
same,NI16 level (relative),"[4]; genotype WS, 10 μm BTH",10
same,NI16 level (relative),"[4]; genotype WS, 100 μm BTH",90
same,NI16 transcript accumulation,[5],unable to accumulate NI16 transcript
